# Patent US20150216794A1, “METHODS OF TREATING PAIN ASSOCIATED WITH OSTEOARTHRITIS OF A JOINT WITH A TOPICAL FORMULATION OF A SPIRO-OXINDOLE COMPOUND” (IVAX International GmbH, priority 2014, published 2015)
# Where “and” joins values, the source holds several entries; their conditions need not be identical. Equal entries are not always repeated.
# How the values were obtained:
# [1] = minipig: tissue distribution of radioactivity and unchanged compound; format: in vivo, Göttingen minipig; conditions: for concentration at 24 h: male, Göttingen, minipig, topical, 70 mg spiro-oxindole compound equivalents ointment/kg
# From the text: The following tissues/organs were removed from the remaining carcass:
# The urinary bladder from each animal was rinsed with saline and the washings discarded. Each section of the gastrointestinal tract wall was washed to remove contents (which were retained for analysis) prior to analysis. Remaining carcasses were discarded.
# [2] = domestic pig joint penetration: concentration in synovial membrane; format: in vivo
# Procedure: (§1) This study was conducted to evaluate the joint penetration, systemic plasma exposure and tissue distribution of the spiro-oxindole compound in domestic pigs following topical administration of a pharmaceutical composition utilized in the methods of the invention. Fifteen female pigs were used in this study with three pigs in each group. Beginning on Day 1, a pharmaceutical composition of the invention was topically applied to the left radiocarpal joint (carpus) and tibiotarsal joint (hock) twice daily (bid) for 17 days (34 applications) for Groups 1-4 and once daily (qd) for 17 days (17 applications) for Group 5. Pre-dose blood samples (prior to morning dosing) was collected on Days 2, 7, 10, 14 and 17. A full pharmacokinetic sampling was performed on Day 17 (post am dosing) at the following time points: 1, 2, 4, 8 and 12 hr. On the day of necropsy, Day 18, blood was collected prior to euthanasia, each pig was humanely euthanized and dorsal skin and muscle, liver, kidney, heart, lung, brain, intestine, fat, ovaries, urinary bladder, sciatic nerve, and skin, muscle, synovial membrane, and synovial fluid from all 4 joints (2 treated, left carpus and hock, and 2 untreated, right carpus and hock) was collected.
# Doses were calculated by measuring the joint circumference and joint width (to include ˜2 cm above and below the joint) to calculate the total surface area for each individual dose. Group 1 received a 2% pharmaceutical composition of the invention and the dose volume for Group 1 was calculated using the total surface area and the designated dose volume of 3 μL/cm^2. The total dose volume was then converted from μL to mL to estimate the dose weight in grams, based on the composition density of 1 g/cm^3. Following is an example (not actual measurements) of calculating the dose:
# For Groups 2-5, the dose volume was calculated using the total surface area and the designated dose volume of 3 μL/cm^2 (Groups 2, 3 and 5) or 1 μL/cm^2 (Group 4). The total dose volume was then converted from μL to mL to estimate the dose length in centimeters of a ribbon of the pharmaceutical composition when squeezed from a glaminate tube onto a metal metric ruler, based on the composition length-weight relationship of 1 cm of pharmaceutical composition being equal to 0.5 g of the composition (diameter of the tube opening was 0.87 cm).
# The test compositions were topically applied an equal distance above and below the center of the joint, i.e., inter-carpal joint space (carpus) and inter-tarsal joint space (hock) of each animal to allow for complete coverage of the joint, including approximately 2 cm above and below the edges of the joint. The test composition was applied to the entire circumference of the designated area. All animals were dosed using the same distance above and below each joint center for consistency.
# (§2) The dose volume (μL/cm^2) for the test pharmaceutical compositions was 3.0 μL/cm^2 for Groups 1, 2, 3 and 5 and 1.0 μL/cm^2 for Group 4.
# The following tissue samples were collected after euthanasia: • Dorsal skin and muscle (from the mid-back) • Liver—Left Medial Lobe • Kidney—Right • Heart • Lung—Right diaphragmatic lobe • Brain—Right cerebral hemisphere • Intestine—mid-jejunum • Duodenum (10-15 cm length) from all 6 animals in Groups 1 and 2 • Fat • Ovary—Right • Urinary bladder • Sciatic nerve from both legs • Skin, muscle underlying site of administration and synovial membrane of all 4 joints (treated left carpus and hock and untreated right carpus and hock)
# [3] = domestic pig joint penetration study: concentration in plasma; format: in vivo; conditions: for concentration in plasma, individual animals: 3.0 μL/cm^2 bid
# Procedure: as §1, §2
# Approximately 2 mL of whole blood was collected prior to the morning dose administration on Days 2, 7, 10, 14 and 17. A full pharmacokinetic profile sampling was performed on Day 17 after the morning dose administration at the following time points: 1, 2, 4, 8 and 12 hr. On the day of necropsy, Day 18, blood was collected prior to euthanasia.
# [4] = domestic pig, topical administration to a joint
compound,measurement,setting,value
"O=C1N(Cc2ccc(C(F)(F)F)o2)c2ccccc2[C@]12COc1cc3c(cc12)OCO3 [spiro-oxindole compound, (S)-1′-{[5-(trifluoromethyl)furan-2-yl]methyl}spiro[furo[2,3-f][1,3]benzodioxole-7,3′-indol]-2′(1′H)one]",tissue radioactivity concentrations in the majority of tissues analysed,[1]; limit of quantification ca 12-25 ng equivalents spiro-oxindole compound/g,below the limit of quantification
same,concentration at 24 h,[1]; heart,17.5 ng/g
same,concentration at 24 h,[1]; liver,11.3 ng/g
same,concentration at 24 h,[1]; skin from the dose site,1860 ng/g
same,concentration at 24 h,[1]; white fat,53.8 ng/g
same,"concentration in synovial membrane tissue, individual animals","[2]; G1 (#1-#3): 2% composition, 3.0 μL/cm^2 bid 17 days, Treated left carpus",126.88 ng/g and 56.86 ng/g and 105.89 ng/g
same,"concentration in synovial membrane tissue, individual animals","[2]; G1 (#1-#3): 2% composition, 3.0 μL/cm^2 bid 17 days, Treated left hock",152.13 ng/g and 38.86 ng/g and 54.04 ng/g
same,"concentration in synovial membrane tissue, individual animals","[2]; G1 (#1-#3): 2% composition, 3.0 μL/cm^2 bid 17 days, Untreated right carpus",70.83 ng/g and 84.97 ng/g and 44.47 ng/g
same,"concentration in synovial membrane tissue, individual animals","[2]; G1 (#1-#3): 2% composition, 3.0 μL/cm^2 bid 17 days, Untreated right hock",97.22 ng/g and 33.16 ng/g and 41.19 ng/g
same,"concentration in synovial membrane tissue, individual animals","[2]; G2 (#4-#6): 4% composition, 3.0 μL/cm^2 bid 17 days, Treated left carpus",72.14 ng/g and 269.82 ng/g and 183.72 ng/g
same,"concentration in synovial membrane tissue, individual animals","[2]; G2 (#4-#6): 4% composition, 3.0 μL/cm^2 bid 17 days, Treated left hock",132.05 ng/g and 95.93 ng/g and 131.87 ng/g
same,"concentration in synovial membrane tissue, individual animals","[2]; G2 (#4-#6): 4% composition, 3.0 μL/cm^2 bid 17 days, Untreated right carpus",114.15 ng/g and 100.42 ng/g and 129.30 ng/g
same,"concentration in synovial membrane tissue, individual animals","[2]; G2 (#4-#6): 4% composition, 3.0 μL/cm^2 bid 17 days, Untreated right hock",92.75 ng/g and 69.80 ng/g and 98.28 ng/g
same,"concentration in synovial membrane tissue, individual animals","[2]; G3 (#7-#9): 8% composition, 3.0 μL/cm^2 bid 17 days, Treated left carpus",708.62 ng/g and 737.86 ng/g and 137.46 ng/g
same,"concentration in synovial membrane tissue, individual animals","[2]; G3 (#7-#9): 8% composition, 3.0 μL/cm^2 bid 17 days, Treated left hock",252.46 ng/g and 576.83 ng/g and 1917.93 ng/g
same,"concentration in synovial membrane tissue, individual animals","[2]; G3 (#7-#9): 8% composition, 3.0 μL/cm^2 bid 17 days, Untreated right carpus",54.19 ng/g and 185.83 ng/g and 130.63 ng/g
same,"concentration in synovial membrane tissue, individual animals","[2]; G3 (#7-#9): 8% composition, 3.0 μL/cm^2 bid 17 days, Untreated right hock",82.74 ng/g and 737.82 ng/g and 167.55 ng/g
same,"concentration in synovial membrane tissue, individual animals","[2]; G4 (#10-#12): 8% composition, 1.0 μL/cm^2 bid 17 days, Treated left carpus",49.99 ng/g and 59.22 ng/g and 159.68 ng/g
same,"concentration in synovial membrane tissue, individual animals","[2]; G4 (#10-#12): 8% composition, 1.0 μL/cm^2 bid 17 days, Treated left hock",291.56 ng/g and 38.32 ng/g and 3171.10 ng/g
same,"concentration in synovial membrane tissue, individual animals","[2]; G4 (#10-#12): 8% composition, 1.0 μL/cm^2 bid 17 days, Untreated right carpus",34.85 ng/g and 1772.86 ng/g and 46.92 ng/g
same,"concentration in synovial membrane tissue, individual animals","[2]; G4 (#10-#12): 8% composition, 1.0 μL/cm^2 bid 17 days, Untreated right hock",26.20 ng/g and 0.00 ng/g and 45.29 ng/g
same,"concentration in synovial membrane tissue, individual animals","[2]; G5 (#13-#15): 8% composition, 3.0 μL/cm^2 qd 17 days, Treated left carpus",702.22 ng/g and 150.00 ng/g and 35.31 ng/g
same,"concentration in synovial membrane tissue, individual animals","[2]; G5 (#13-#15): 8% composition, 3.0 μL/cm^2 qd 17 days, Treated left hock",31.44 ng/g and 100.00 ng/g and 55.90 ng/g
same,"concentration in synovial membrane tissue, individual animals","[2]; G5 (#13-#15): 8% composition, 3.0 μL/cm^2 qd 17 days, Untreated right carpus",11.61 ng/g and 25.25 ng/g and 79.58 ng/g
same,"concentration in synovial membrane tissue, individual animals","[2]; G5 (#13-#15): 8% composition, 3.0 μL/cm^2 qd 17 days, Untreated right hock",18.69 ng/g and 37.98 ng/g and 21.70 ng/g
same,concentration in synovial membrane tissue of treated joint (in words),[2]; [4],micromolar concentrations
same,"concentration in plasma, individual animals","[3]; G1 (#1-#3): 2% composition, Day 2 Before dosing",0.34 ng/mL
same,"concentration in plasma, individual animals","[3]; G1 (#1-#3): 2% composition, Day 7 Before dosing",0.97 ng/mL
same,"concentration in plasma, individual animals","[3]; G1 (#1-#3): 2% composition, Day 10 Before dosing",1.54 ng/mL
same,"concentration in plasma, individual animals","[3]; G1 (#1-#3): 2% composition, Day 14 Before dosing",1.10 ng/mL
same,"concentration in plasma, individual animals","[3]; G1 (#1-#3): 2% composition, Day 17 1 hour after dosing",1.21 ng/mL
same,"concentration in plasma, individual animals","[3]; G1 (#1-#3): 2% composition, Day 17 2 hour after dosing",1.07 ng/mL
same,"concentration in plasma, individual animals","[3]; G1 (#1-#3): 2% composition, Day 17 4 hour after dosing",1.04 ng/mL
same,"concentration in plasma, individual animals","[3]; G1 (#1-#3): 2% composition, Day 17 8 hour after dosing",1.30 ng/mL
same,"concentration in plasma, individual animals","[3]; G1 (#1-#3): 2% composition, Day 17 12 hour after dosing",11.38 ng/mL
same,"concentration in plasma, individual animals","[3]; G1 (#1-#3): 2% composition, Day 17 Before dosing",2.70 ng/mL
same,"concentration in plasma, individual animals","[3]; G1 (#1-#3): 2% composition, Day 18",1.60 ng/mL
same,"concentration in plasma, individual animals","[3]; G2 (#4-#6): 4% composition, Day 2 Before dosing",0.84 ng/mL and 0.86 ng/mL
same,"concentration in plasma, individual animals","[3]; G2 (#4-#6): 4% composition, Day 7 Before dosing",1.73 ng/mL
same,"concentration in plasma, individual animals","[3]; G2 (#4-#6): 4% composition, Day 10 Before dosing",1.79 ng/mL
same,"concentration in plasma, individual animals","[3]; G2 (#4-#6): 4% composition, Day 14 Before dosing",2.47 ng/mL
same,"concentration in plasma, individual animals","[3]; G2 (#4-#6): 4% composition, Day 17 1 hour after dosing",2.47 ng/mL
same,"concentration in plasma, individual animals","[3]; G2 (#4-#6): 4% composition, Day 17 2 hour after dosing",3.47 ng/mL
same,"concentration in plasma, individual animals","[3]; G2 (#4-#6): 4% composition, Day 17 4 hour after dosing",2.72 ng/mL
same,"concentration in plasma, individual animals","[3]; G2 (#4-#6): 4% composition, Day 17 8 hour after dosing",1.94 ng/mL
same,"concentration in plasma, individual animals","[3]; G2 (#4-#6): 4% composition, Day 17 12 hour after dosing",12.17 ng/mL and 15.72 ng/mL
same,"concentration in plasma, individual animals","[3]; G2 (#4-#6): 4% composition, Day 17 Before dosing",3.25 ng/mL
same,"concentration in plasma, individual animals","[3]; G2 (#4-#6): 4% composition, Day 18",5.41 ng/mL and 2.83 ng/mL
same,plasma concentration / systemic exposure (in words),[3]; [4],nanomolar
